Read-outs that look alike come from different tables or passages of the source.
Tests used:
[1] = biological target: T1, Porcine pancreatic phospholipase A2 (Sus scrofa, UniProt P00592); assay: Phospholipase A2 inhibitory activity, method A (egg yolk lecithin substrate); format: biochemical; conditions: 1,000 ppm, 37°C for 30 minutes, read-out: % inhibition of PLA2 (1,000 ppm)
T1 construct: purchased Boehringer Mannheim·Yamanouchi K.K. 161454·122416
Method: To 10 mg of egg yolk lecithin (manufactured by Wako Pure Chemical Industries Ltd.), 1 ml of glycerine, 2 ml of a 50 mM Tris-HCl buffer solution (pH7.5) [Tris(hydroxymethyl)aminomethane (manufactured by Nacalai Tesque K.K.) was adjusted to pH7.5 with hydrochloric acid], 0.5 ml of a 150 mM calcium chloride solution (calcium chloride was dissolved in a 50 mM Tris-HCl buffer solution) and 0.5 ml of a 0.05% Triton-X100 (manufactured by Nacalai Tesque K.K.) solution (Triton-X100 was dissolved in a 50 mM Tris-HCl buffer solution), were added and dispersed by an agate mortar or dispersed by an ultrasonic processor (Model W-225, manufactured by Heat System-Ultrasonics, Inc.) for 5 minutes (30W) to obtain a substrate.
(§1) Porcine pancreatic phospholipase A2 [(161454·122416) manufactured by Boehringer Mannheim·Yamanouchi K.K.] was used.
To a 96 well microtitration plate (flat bottom, manufactured by Sumitomo Bakelite Medical Co., Ltd.), 40 µl of the substrate, 5 µl of a solution prepared by dissolving 10 mg of a test compound in 500 µl of dimethylsulfoxide, followed by an addition of 500 µl of a 50 mM Tris-HCl buffer solution, and 5 µl of an enzyme solution of 20 ng/ml (prepared by diluting the enzyme in a 50 mM Tris-HCl buffer solution), were added and reacted at 37°C for 30 minutes. After termination of the reaction, the released free fatty acid was quantitatively analyzed in accordance with the ACS-ACOD (acyl CoA synthetase-acyl CoA oxidase) method [a kit of NEFA C test wako (manufactured by Wako Pure Chemical Industries, Ltd.) was used]. The quantitative analysis was made by means of Microplate ELISA Reader (Model 2550EIA Reader, manufactured by Bio-Rad Laboratories) at a wavelength of 540 nm. Separately, such experiments as mentioned above, were carried out at various concentrations (2 µg/ml, 1 µg/ml and 0.5 µg/ml) of phospholipase A2 without a test compound. Then, the concentration of the free fatty acid versus the concentration of phospholipase A2 was plotted.
(§2) From this standard curve, the apparent concentration of phospholipase A2 in the case with a test compound, was read. Then, the percent inhibition of the enzyme was calculated by the following formula. Percent inhibition (%) = (l -(A)/(B)) x 100 [formula] • A: Apparent enzyme concentration when a test compound is added. • B: True enzyme concentration when a test compound is added.

[2] = biological target: T1, Porcine pancreatic phospholipase A2; assay: Phospholipase A2 inhibitory activity, method B (L-α-dipalmitoylphosphatidylcholine substrate); format: biochemical; conditions: 37°C for 30 minutes; for inhibition at 1000 ppm: 1,000 ppm, read-out: % inhibition of PLA2 (1,000 ppm)
Method: To a solution prepared by dissolving 9.2 mg of L-α-dipalmitoylphosphatidylcholine (manufactured by Nichiyu Liposome K.K.) in 0.5 ml of chloroform, a solution prepared by dissolving 32 mg of sodium cholate (manufactured by Wako Pure Chemical Industries, Ltd.) in 0.5 ml of methanol, was added, followed by mixing. The solvent of the mixture was removed under a nitrogen stream, and then 2.5 ml of a 250 mM sodium chloride solution [prepared by dissolving sodium chloride in a 100 mM Tris-HCl buffer solution {tris(hydroxymethyl)aminomethane (manufactured by Nacalai Tesque K.K.) was adjusted to pH8.0 with hydrochloric acid}] was added thereto, and the mixture was dissolved under stirring to obtain a substrate.
as §1
To a 96 well microtitration plate, 20 µl of a solution containing calcium chloride, bovine serum alubmin (manufactured by Sigma Chemical, Co.) and a Tris-HCl buffer solution (pH8.0) at concentrations of 25 mM, 4.5 mg/ml and 100 mM, respectively, 5 µl of a solution prepared by dissolving 10 mg of a test compound in 500 µl of diemthylsulfoxide, followed by an addition of 500 µl of a 200 mM Tris-HCl buffer solution, 5 µl of an enzyme solution (10 µg/ml) [prepared by dissolving the enzyme in a bovine serum alubmin solution (prepared by dissolving bovine serum alubmin in a 100 mM Tris-HCl buffer solution at a concentration of 1 mg/ml)] and 20 µl of the substrate, were added and reacted at 37°C for 30 minutes. After termination of the reaction, the released free fatty acid was quantitatively analyzed in accordance with the ACS-ACOD (acyl CoA synthetase-acyl CoA oxidase) method [a kit of NEFA C test wako (manufactured by Wako Pure Chemical Industries, Ltd.) was used]. The quantitative analysis was made by means of Microplate ELISA Reader (Model 2550EIA Reader, manufactured by Bio-Rad Laboratories) at a wavelength of 540 nm. Separately, such experiments as mentioned above, were carried out at various concentrations (1 µg/ml, 0.75 µg/ml, 0.5 µg/ml and 0.25 µg/ml) of phospholipase A2 without a test compound. Then, the concentration of the free fatty acid versus the concentration of phospholipase A2 was plotted.
as §2

[3] = system: experimental acute pancreatitis model; assay: Effects against acute pancreatitis (Test Example 8, closed duodenal loop method, lesion scores); format: in vivo, Crj-CD male rats; conditions: sodium salt, 6 hours after ventrotomy; for inhibition in vivo at 10 mg/kg: Rattus norvegicus, 10 mg/kg single intravenous injection
Method: Using Crj-CD male rats, each test group consisted of 3 rats. An experimental acute pancreatitis model was prepared by a closed duodenal loop method under anethesia with halothane (manufactured by Hoechst Japan) and nitrous oxide (manufactured by Sumitomo Seika K.K.) applied by a general inhalation anesthesia machine (Model EM2 and halothane evaporator F-Model). Each compound (subjected to the test in the form of a sodium salt) was continuously intravenously injected into the tail vein in an amount of 0.4 ml/100 g to 0.6 ml/100 g at a rate of 0.05 ml per minute by a pump (Technicon AA II Proportioning Pump III, manufactured by Technicon Instruments Corporation) or rapidly intravenously injected. No injection was made to a control group. Gross pathological examination was conducted upon expiration of 6 hours after the ventrotomy in the case of the group to which the compound was administered. With respect to each of four lesions among pancreatic lesions i.e. petechia, ecchymosis, pancreatic necrosis and abdominal fatty necrosis, the grade and the distribution of lesions were scored with five grades of 0, 0.5, 1, 2 and 3 (severe lesions are 3). The sum of all lesions was designated as scores of pancreatitis lesions, and the sum of the score of petechia and the score of ecchymosis only was designated as scores of hemorrhagic lesions. The pancreatitis inhibition rate (%) and the hemorrhage inhibition rate (%) were obtained by the following formulas, and the results are shown in Table 13. Pancreatitis inhibition rate (%) = (l -(H)/(G)) x 100 [formula] • H: Scores of pancreatitis lesions of the group to which a test compound was administered. • G: Scores of pancreatitis lesions of the control group. Hemorrhage inhibition rate (%) = (l -(J)/(I)) x 100 [formula] • J: Scores of hemorrhagic lesions of the group to which a test compound was administered. • I: Scores of hemorrhagic lesions of the control group.

carrageenin edema = assay: Inhibitory activity on carrageenin edema; format: in vivo, Wistar male rats; conditions: rat; dose 50 mg/kg orally; paw swelling volume three hours after carrageenin
Method: Using Wistar male rats (body weight: about 100 g), each test group consisted of 5 rats. A test compound was mixed with Tween 80 [polyoxyethylenesorbitan monooleate (manufactured by Nacalai Tesque K.K.)], and distilled water was added thereto to obtain a 2% Tween 80 suspension, or it was dissolved in the form of a salt in water to obtain an aqueous solution. Either the suspension or the aqueous solution was orally administered in an amount of 200 mg/kg, 100 mg/kg, 50 mg/kg or 25 mg/kg. One hour later, 0.1 ml of a 1% λ-carrageenin solution dissolved in a physiological saline was injected subcutaneously to the right hind paw of each rat to cause inflamation. Three hours later, the paw volume was measured by a paw volume measuring device (manufactured by Ugobasiee K.K.). A swelling volume was obtained from the difference from the value before the inflammation. Inhibition rate (%) = (l -(F)/(E)) x 100 [formula] • F: Average swelling volume in the group to which a test compound was administered. • E: Average swelling volume in the control group.

[4] = Acute toxicity, intravenous injection (LD50); format: in vivo; conditions: mouse, in vivo, iv, ddy male mice, sodium salt, mortality over one week
Method: Administration route: Intravenous injection
Using ddy male mice (body weight: 25 - 30 g), each test group consisted of 5 mice. A test compound was dissolved in the form of a sodium salt in a physiological saline or in a 5% glucose aqueous solution, and intravenously injected in an amount of 0.1 ml/10 g body weight. After the injection, the mortality rate was obtained over one week, and the median lethal dose LD50 (mg/kg) was determined.

[5] = read-out: Inhibition rate of hemorrhagic lesions (%)
[6] = read-out: Inhibition rate of pancreatitis lesions (%)

T1 sequence (P00592 23-146): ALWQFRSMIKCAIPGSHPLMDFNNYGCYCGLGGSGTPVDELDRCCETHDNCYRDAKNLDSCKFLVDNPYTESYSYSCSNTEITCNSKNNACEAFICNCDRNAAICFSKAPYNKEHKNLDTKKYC

inhibition at 1000 ppm [1] | inhibition at 1000 ppm [2] | Structure (SMILES) | Inhibition rate (%) (carrageenin edema) | further results
35% | – | CCOC(=O)Nc1ncc(C(F)(F)F)cc1NC(=O)OCc1ccccc1 [compound 38] | – | –
74% | 42% | CS(=O)(=O)Nc1ncc(C(F)(F)F)cc1NC(=O)c1cccc(F)c1 [compound 58] | – | inhibition in vivo at 10 mg/kg [3, 5]: 70%; inhibition in vivo at 10 mg/kg [3, 6]: 51%
47% | – | O=C(Nc1cc(C(F)(F)F)cnc1NC(=O)C(F)(F)F)C(Cl)Cl [compound 29] | – | –
– | 53% | CCCOC(=O)Nc1cc(C(F)(F)F)cnc1NS(=O)(=O)N(C)C [compound 114] | 28% | inhibition in vivo at 10 mg/kg [3, 5]: 32%; inhibition in vivo at 10 mg/kg [3, 6]: 27%
63% | – | CC(C)S(=O)(=O)Nc1ncc(C(F)(F)F)cc1NC(=O)C(F)(F)C(F)(F)F [compound 51] | – | –
37% | 100% | CCCCS(=O)(=O)Nc1ncc(C(F)(F)F)cc1NC(=O)C1CCCCC1 [compound 53] | – | –
– | 58% | CCCCCC(=O)Nc1cc(C(F)(F)F)cnc1NS(=O)(=O)N(C)C [compound 110] | 25% | –
48% | – | CCS(=O)(=O)Nc1ncc(C(F)(F)F)cc1NC(=O)c1ccccc1 [compound 48] | – | –
– | 86% | CS(=O)(=O)Nc1ncc(C(F)(F)F)cc1NC(=O)c1ccc2c(c1)CCCC2 [compound 123] | 42% | inhibition in vivo at 10 mg/kg [3, 5]: 56%; inhibition in vivo at 10 mg/kg [3, 6]: 56%
– | 71% | CCCCC(CC)C(=O)Nc1cc(C(F)(F)F)cnc1NS(C)(=O)=O (stereo not drawn) [compound 65] | 37% | inhibition in vivo at 10 mg/kg [3, 5]: 67%; inhibition in vivo at 10 mg/kg [3, 6]: 74%
– | – | CS(=O)(=O)NNc1ncc(C(F)(F)F)cc1NC(=O)C(F)(F)C(F)(F)F [compound 40] | – | LD50 at 168 h [4]: 50 to 100 mg/kg
87% | – | O=C(Nc1ncc(C(F)(F)F)cc1NC(=O)C(Cl)(Cl)Cl)C(F)(F)F [Compound No. 30, N-(3-trichloroacetylamino-5-trifluoromethyl-2-pyridyl)trifluoroacetamide] | – | –
– | – | CS(=O)(=O)Nc1ncc(C(F)(F)F)cc1NC(=O)c1ccc(F)cc1 [compound 259] | 17% | % inhibition of PLA2 (1,000 ppm) [2]: 61%
47% | – | CS(=O)(=O)Nc1ncc(C(F)(F)F)cc1NC(=O)CCCCCl [compound 46] | 30% | Inhibition rate of hemorrhagic lesions (%) ([3]; 46 mg/kg continuous intravenous injection): 36%
– | 63% | CS(=O)(=O)Nc1ncc(C(F)(F)F)cc1NC(=O)C1=CCCCC1 [compound 69] | 25% | –
37% | – | CCOC(=O)NC(=S)Nc1cc(C(F)(F)F)cnc1NC [compound 54] | – | –
– | 52% | CCC(C(=O)Nc1cc(C(F)(F)F)cnc1NS(C)(=O)=O)c1ccccc1 (stereo not drawn) [compound 66] | 31% | inhibition in vivo at 10 mg/kg [3, 5]: 53%; inhibition in vivo at 10 mg/kg [3, 6]: 63%
– | 86% | CCCCCCCC(=O)Nc1cc(C(F)(F)F)cnc1NS(C)(=O)=O [compound 125] | 22% | –
50% | – | O=C(Nc1cc(C(F)(F)F)cnc1NC(=O)C(F)(F)C(F)(F)F)c1ccccc1 [compound 32] | – | –
35% | – | CCOCCC(=O)Nc1cc(C(F)(F)F)cnc1NC(=O)CCOCC [compound 26] | – | –
62% | – | O=C(Nc1ncc(C(F)(F)F)cc1NC(=O)C(F)(F)F)C(Cl)Cl [compound 27] | – | –
71% | – | O=C(Nc1cc(C(F)(F)F)cnc1NC(=O)C(Cl)Cl)C(Cl)Cl [compound 28] | 25% | –
78% | – | CC(C)S(=O)(=O)Nc1ncc(C(F)(F)F)cc1NC(=O)C(Cl)(Cl)Cl [compound 50] | – | –
43% | 64% | COc1ccc(C(=O)Nc2cc(C(F)(F)F)cnc2NS(C)(=O)=O)cc1 [compound 44] | – | –
49% | – | CCCCS(=O)(=O)Nc1ncc(C(F)(F)F)cc1NC(=O)C(F)(F)C(F)(F)F [compound 52] | – | –

Structure (SMILES) | inhibition at 1000 ppm [1] | inhibition at 1000 ppm [2] | Inhibition rate (%) (carrageenin edema) | further results
CS(=O)(=O)Nc1ncc(C(F)(F)F)cc1NC(=O)C(F)(F)C(F)(F)C(F)(F)F [compound 14] | 54% | – | – | Inhibition rate of hemorrhagic lesions (%) ([3]; 19 mg/kg continuous intravenous injection): 52%

— patent publication EP0465913B1, “Diaminotrifluoromethylpyrimidine derivatives, process for their production and phospholipase A2 inhibitor containing them” (ISHIHARA SANGYO KAISHA, LTD., priority 1990, dated 1992)
